Assay results published in ChEMBL document CHEMBL3758122, “Multitarget opioid ligands in pain relief: New players in an old game” (Eur J Med Chem, 2016).
Starred links: 1 amine or outer side, 2 acyl side, 3 side chain; linkers in the order of their positions; H or OH if unused. Positions of bridges follow the written chain, without caps; N, C: chain ends. Non-standard residues stand in square brackets, D forms with d. Residues, ends and D or L forms follow the SMILES beside them. *: point of attachment. Dmt = Cc1cc(O)cc(C)c1C[C@H](N)C(=O)O; Tic = O=C(O)[C@@H]1Cc2ccccc2CN1; dTic = O=C(O)[C@H]1Cc2ccccc2CN1; NHBn = c1ccc(CN*)cc1; CH2 = C([*:1])[*:2]; NHPh = c1ccc(N*)cc1

Key:
[1] = molecular target: T1, Delta-type opioid receptor (Homo sapiens, UniProt P41143); assay: Displacement of [3H]DPN from human delta opioid receptor expressed in CHO cells by liquid scintillation counting; assay type: cell-based
[2] = molecular target: T2, Delta-type opioid receptor (Mus musculus, UniProt P32300); assay: Antagonist activity at delta-opioid receptor in mouse vas deferens assessed as inhibition of DPDPE-induced inhibition of electrically induced twitches; assay type: tissue-based; conditions: read-out: pA2 (converted)
[3] = molecular target: T1, Delta-type opioid receptor; assay: Binding affinity at delta opioid receptor (unknown origin)
Mu-type opioid receptor [4] = molecular target: T3, Mu-type opioid receptor (Homo sapiens, UniProt P35372); assay: Binding affinity at mu opioid receptor (unknown origin)
Mu-type opioid receptor [5] = molecular target: Mu-type opioid receptor (Cavia porcellus, UniProt P97266); assay: Agonist activity at mu-opioid receptor in guinea pig ileum assessed as inhibition of electrically induced twitches; assay type: tissue-based
[6] = molecular target: T2, Delta-type opioid receptor; assay: Agonist activity at delta-opioid receptor in mouse vas deferens; assay type: tissue-based
Mu-type opioid receptor [7] = molecular target: T3, Mu-type opioid receptor; assay: Displacement of [3H]DPN from human mu opioid receptor expressed in CHO cells by liquid scintillation counting; assay type: cell-based
[8] = molecular target: Delta-type opioid receptor (Rattus norvegicus, UniProt P33533); assay: (§1) Agonist activity at rat delta opioid receptor transfected in C6 cells by [35S]GTPgammaS binding assay; assay type: functional, cell-based
[9] = molecular target: T1, Delta-type opioid receptor; assay: Displacement of [3H]DPDPE from human delta opioid receptor expressed in CHO cells; assay type: cell-based
Mus musculus [10] = assay: Antinociceptive activity in sc dosed Swiss Webster mouse measured after 30 mins by hot plate test; assay type: functional; conditions: 0.5 h
Mu-type opioid receptor [11] = molecular target: T3, Mu-type opioid receptor; assay: Displacement of [3H]DAMGO from human mu opioid receptor expressed in CHO cell membrane; assay type: cell membranes
Mu-type opioid receptor [12] = molecular target: T3, Mu-type opioid receptor; assay: Agonist activity at human mu opioid receptor expressed in CHO cells by [35S]GTP-gammaS binding assay
[13] = molecular target: T4, Kappa-type opioid receptor (Homo sapiens, UniProt P41145); assay: Agonist activity at human kappa opioid receptor expressed in CHO cell membrane by [35S]GTP-gammaS binding assay
Mus musculus [14] = assay: Antinociceptive activity in icv dosed mouse after 20 mins by tail flick test; assay type: functional
[15] = molecular target: T4, Kappa-type opioid receptor; assay: Binding affinity to kappa opioid receptor (unknown origin)
[16] = molecular target: T1, Delta-type opioid receptor; assay: Displacement of [3H]naltrindole from human delta opioid receptor expressed in CHO cell membrane; assay type: cell membranes
[17] = molecular target: T1, Delta-type opioid receptor; assay: Antagonist activity at human delta opioid receptor expressed in CHO cell membrane assessed as inhibition of […]-induced [35S]-GTP-gammaS binding; assay type: cell membranes
[18] = molecular target: T1, Delta-type opioid receptor; assay: Antagonist activity at human delta opioid receptor expressed in CHO cell membrane assessed as inhibition of DPDPE-induced [35S]-GTP-gammaS binding; assay type: cell membranes
[19] = molecular target: T1, Delta-type opioid receptor; assay: Partial agonist activity at delta opioid receptor (unknown origin) assessed as [35S]GTPgammaS binding by cell based assay
Mu-type opioid receptor [20] = molecular target: T3, Mu-type opioid receptor; assay: Agonist activity at mu opioid receptor (unknown origin) assessed as [35S]GTPgammaS binding by cell based assay; assay type: functional
Rattus norvegicus = assay: Analgesic activity in sc dosed rat by tail flick test; assay type: functional
[21] = molecular target: T1, Delta-type opioid receptor; assay: Agonist activity at human delta-opioid receptor expressed in CHO cells by [35S]GTPgammaS binding assay; assay type: functional, cell-based
Mus musculus [22] = assay: Toxicity in sc dosed Kunming mouse assessed as sedation by rotarod test; assay type: organism-based; conditions: in vivo
Mus musculus [23] = assay: Antinociceptive activity in sc dosed Kunming mouse measured after 30 mins by hot plate test; assay type: functional; conditions: 0.5 h
Mu-type opioid receptor [24] = molecular target: T3, Mu-type opioid receptor; assay: Partial agonist activity at mu opioid receptor (unknown origin) expressed in CHO cell membrane assessed as stimulation of [35S]GTP-gamma-S binding; assay type: cell membranes
[25] = molecular target: T4, Kappa-type opioid receptor; assay: Displacement of [3H]U69,593 from human kappa opioid receptor expressed in CHO cell membrane; assay type: cell membranes
Mu-type opioid receptor [26] = molecular target: T3, Mu-type opioid receptor; assay: Displacement of [3H]D-Ala2,N-Me-Phe4,Gly5-ol]-Enkephalin from human mu opioid receptor expressed in CHO cell membrane; assay type: cell membranes
Mu-type opioid receptor [27] = molecular target: Mu-type opioid receptor (Rattus norvegicus, UniProt P33535); assay: (§2) Agonist activity at rat mu opioid receptor transfected in C6 cells by [35S]GTPgammaS binding assay; assay type: functional, cell-based
[28] = molecular target: T1, Delta-type opioid receptor; assay: Partial agonist activity at delta opioid receptor (unknown origin) assessed as inhibition of adenylyl cyclase activity
[29] = molecular target: T4, Kappa-type opioid receptor; assay: Agonist activity at kappa opioid receptor (unknown origin) assessed as [35S]GTPgammaS binding by cell based assay; assay type: functional
[30] = molecular target: Delta-type opioid receptor (Rattus norvegicus) (UniProt P33533); assay: as §1; assay type: functional, cell-based
[31] = molecular target: Mu-type opioid receptor (Rattus norvegicus) (UniProt P33535); assay: as §2; assay type: functional, cell-based
[32] = molecular target: Delta-type opioid receptor (Mus musculus) (UniProt P32300); assay: Antagonist activity at delta-opioid receptor in mouse vas deferens; assay type: tissue-based
[33] = molecular target: Kappa-type opioid receptor (Rattus norvegicus, UniProt P34975); assay: Displacement of [3H]DAMGO from kappa opioid receptor in albino Sprague-Dawley rat after 90 mins by liquid scintillation
[34] = molecular target: T1, Delta-type opioid receptor; assay: Antagonist activity at […] delta opioid receptor in CD1 mouse assessed as electrically induced twitches

T4 sequence (P41145 whole entry): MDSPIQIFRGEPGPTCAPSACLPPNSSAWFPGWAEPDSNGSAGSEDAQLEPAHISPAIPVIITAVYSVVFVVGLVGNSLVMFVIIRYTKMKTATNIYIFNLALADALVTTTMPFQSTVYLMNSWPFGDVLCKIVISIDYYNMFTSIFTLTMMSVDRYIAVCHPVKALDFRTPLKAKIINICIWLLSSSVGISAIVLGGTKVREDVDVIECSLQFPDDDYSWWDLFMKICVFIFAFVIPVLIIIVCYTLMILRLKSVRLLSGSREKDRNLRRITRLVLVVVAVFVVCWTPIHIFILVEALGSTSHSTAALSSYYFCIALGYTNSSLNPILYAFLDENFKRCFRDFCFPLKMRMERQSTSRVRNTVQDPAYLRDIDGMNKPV
T2 sequence (P32300 whole entry): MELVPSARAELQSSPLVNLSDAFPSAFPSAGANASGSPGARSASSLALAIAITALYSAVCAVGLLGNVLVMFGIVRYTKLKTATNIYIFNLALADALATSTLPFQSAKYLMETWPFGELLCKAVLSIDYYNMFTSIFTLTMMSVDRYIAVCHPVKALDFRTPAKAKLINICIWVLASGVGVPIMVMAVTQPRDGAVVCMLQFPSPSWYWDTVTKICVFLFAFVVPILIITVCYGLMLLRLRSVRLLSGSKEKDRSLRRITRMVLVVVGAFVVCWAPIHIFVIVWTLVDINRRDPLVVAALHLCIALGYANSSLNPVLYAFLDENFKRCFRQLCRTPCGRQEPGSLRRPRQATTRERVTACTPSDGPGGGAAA
Chain of Mu-type opioid receptor (Rattus norvegicus) (P33535 whole entry): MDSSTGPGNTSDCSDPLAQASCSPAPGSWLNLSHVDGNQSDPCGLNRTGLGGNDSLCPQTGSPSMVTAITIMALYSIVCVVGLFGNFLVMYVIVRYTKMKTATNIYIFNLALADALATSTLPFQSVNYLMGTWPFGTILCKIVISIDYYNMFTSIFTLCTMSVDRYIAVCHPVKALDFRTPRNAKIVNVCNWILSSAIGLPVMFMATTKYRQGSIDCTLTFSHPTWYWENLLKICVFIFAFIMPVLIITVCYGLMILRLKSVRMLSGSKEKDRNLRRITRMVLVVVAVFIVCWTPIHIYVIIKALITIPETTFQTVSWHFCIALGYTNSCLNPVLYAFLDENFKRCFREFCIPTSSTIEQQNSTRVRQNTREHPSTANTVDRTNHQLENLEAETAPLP
T1 sequence (P41143 whole entry): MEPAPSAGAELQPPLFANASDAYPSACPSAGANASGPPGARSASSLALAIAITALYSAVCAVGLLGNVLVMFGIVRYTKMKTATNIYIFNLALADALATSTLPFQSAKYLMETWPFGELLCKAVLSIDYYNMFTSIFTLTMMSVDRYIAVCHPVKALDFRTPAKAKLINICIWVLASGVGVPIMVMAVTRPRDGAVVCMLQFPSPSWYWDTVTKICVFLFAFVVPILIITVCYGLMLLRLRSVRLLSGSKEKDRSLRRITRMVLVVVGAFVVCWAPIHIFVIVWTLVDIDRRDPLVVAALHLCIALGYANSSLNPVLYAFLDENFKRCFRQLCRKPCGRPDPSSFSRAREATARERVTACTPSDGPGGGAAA
T3 sequence (P35372 whole entry): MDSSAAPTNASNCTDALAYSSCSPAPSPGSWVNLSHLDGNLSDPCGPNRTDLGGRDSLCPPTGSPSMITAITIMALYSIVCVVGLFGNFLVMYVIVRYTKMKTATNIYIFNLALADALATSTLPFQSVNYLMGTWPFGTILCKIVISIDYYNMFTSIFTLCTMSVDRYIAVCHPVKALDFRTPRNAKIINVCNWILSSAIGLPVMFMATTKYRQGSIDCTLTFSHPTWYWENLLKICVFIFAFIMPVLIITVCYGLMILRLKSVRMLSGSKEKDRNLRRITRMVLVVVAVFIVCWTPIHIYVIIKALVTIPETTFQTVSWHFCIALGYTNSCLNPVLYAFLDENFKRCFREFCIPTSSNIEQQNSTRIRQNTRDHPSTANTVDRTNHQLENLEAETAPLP
Chain of Delta-type opioid receptor (Rattus norvegicus) (P33533 whole entry): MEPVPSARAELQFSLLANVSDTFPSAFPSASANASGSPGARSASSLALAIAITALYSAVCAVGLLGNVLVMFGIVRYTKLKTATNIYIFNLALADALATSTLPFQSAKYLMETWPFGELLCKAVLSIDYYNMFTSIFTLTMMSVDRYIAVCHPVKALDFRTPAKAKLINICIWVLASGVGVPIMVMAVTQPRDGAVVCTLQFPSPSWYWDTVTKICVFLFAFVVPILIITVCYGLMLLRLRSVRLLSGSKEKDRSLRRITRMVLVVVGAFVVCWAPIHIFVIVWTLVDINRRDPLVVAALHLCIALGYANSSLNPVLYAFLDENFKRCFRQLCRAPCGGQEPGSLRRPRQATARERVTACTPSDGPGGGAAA
Chain of Mu-type opioid receptor (Cavia porcellus, UniProt P97266) (P97266 whole entry): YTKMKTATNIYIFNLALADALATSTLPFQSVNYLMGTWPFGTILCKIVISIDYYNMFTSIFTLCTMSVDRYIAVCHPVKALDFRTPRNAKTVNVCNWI
Chain of Delta-type opioid receptor (Rattus norvegicus, UniProt P33533) (P33533 whole entry): as the sequence (P33533 whole entry) above
Chain of Kappa-type opioid receptor (Rattus norvegicus, UniProt P34975) (P34975 whole entry): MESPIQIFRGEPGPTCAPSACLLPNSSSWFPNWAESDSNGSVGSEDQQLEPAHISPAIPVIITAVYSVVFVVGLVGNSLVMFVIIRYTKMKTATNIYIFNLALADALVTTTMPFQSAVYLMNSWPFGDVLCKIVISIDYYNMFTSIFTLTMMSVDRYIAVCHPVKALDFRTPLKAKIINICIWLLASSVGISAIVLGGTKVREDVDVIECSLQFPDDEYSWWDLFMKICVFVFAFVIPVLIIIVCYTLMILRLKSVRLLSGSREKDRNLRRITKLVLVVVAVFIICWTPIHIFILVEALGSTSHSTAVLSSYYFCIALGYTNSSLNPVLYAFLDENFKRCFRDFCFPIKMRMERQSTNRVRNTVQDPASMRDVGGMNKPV
Chain of Delta-type opioid receptor (Mus musculus) (P32300 whole entry): as the sequence (P32300 whole entry) above
Chain of Mu-type opioid receptor (Rattus norvegicus, UniProt P33535) (P33535 whole entry): as the sequence (P33535 whole entry) above

Cc1cc(O)cc(C)c1C[C@H](N)C(=O)N1Cc2ccccc2C[C@H]1C(=O)NCC(=O)NCc1ccccc1 (H-[Dmt]-[Tic]-Gly-NHBn)
Ki [1]: 0.151 nM | Kb [2]: 0.708 nM | Ki [3]: 0.16 nM | Ki (Mu-type opioid receptor [4]): 0.031 nM | EC50 (Mu-type opioid receptor [5]): 31.6 nM | EC50 [6]: 2.57 nM | Ki (Mu-type opioid receptor [7]): 16.2 nM

NC(=O)[C@@H]1CSCSC[C@@H](NC(=O)[C@@H](N)Cc2ccc(O)cc2)C(=O)N[C@@H](Cc2ccccc2)C(=O)N[C@@H](Cc2ccccc2)C(=O)N1 (H-Y[dC]FFC-NH2; linker 2-5 via CH2)
Ki [3]: 1.8 nM | Ki (Mu-type opioid receptor [4]): 0.016 nM

CCCC[C@@H]1NC(=O)[C@H](Cc2cccc3ccccc23)NC(=O)[C@H](NC(=O)[C@@H](N)Cc2ccc(O)cc2)CSSC[C@@H](C(N)=O)NC1=O
EC50 [8]: 22 nM

CN1CC[C@]23c4c5ccc(O)c4O[C@@]2(CO)C(=O)CC[C@@]3(O)[C@H]1C5
Ki [9]: 208 nM | ED50 (Mus musculus [10]): 4.3 mg/kg | Ki (Mu-type opioid receptor [11]): 3.2 nM | EC50 (Mu-type opioid receptor [12]): 35 nM

O=C(/C=C/C(=O)Oc1ccc2c(c1)[C@@]13CCCC[C@H]1[C@@H](C2)N(CC1CCC1)CC3)Oc1ccc2c(c1)[C@@]13CCCC[C@H]1[C@@H](C2)N(CC1CCC1)CC3
EC50 [13]: 4.3 nM | ED50 (Mus musculus [14]): 0.27 nmol

Cc1cc(O)cc(C)c1C[C@H](N)C(=O)N1Cc2ccccc2C[C@H]1C(=O)N[C@@H](Cc1ccccc1)C(=O)N[C@@H](Cc1ccccc1)C(N)=O (H-[Dmt][Tic]FF-NH2)
Ki (Mu-type opioid receptor [4]): 1.19 nM

CO[C@@]12CCC(=O)[C@]3(C)Oc4c(O)ccc5c4[C@@]31CCN(C)[C@@H]2C5
Ki [15]: 25.2 nM | Ki [3]: 13.3 nM | Ki (Mu-type opioid receptor [4]): 0.01 nM

Cc1cc(O)cc(C)c1C[C@H](N)C(=O)N1Cc2ccccc2C[C@@H]1C(=O)NCC(=O)N(c1ccccc1)c1ccccc1
Ki [16]: 0.94 nM | Ki (Mu-type opioid receptor [11]): 1.71 nM | IC50 [17]: 8.3 nM | EC50 (Mu-type opioid receptor [12]): 4.8 nM

Cc1cc(O)cc(C)c1C[C@H](N)C(=O)N1Cc2ccccc2C[C@@H]1C(=O)NCC(=O)NCc1ccccc1 (H-[Dmt]-[dTic]-Gly-NHBn)
pKb [18]: 9.81

CN1CC[C@]23c4c5ccc(O)c4O[C@@]2(C)c2[nH]c4ccccc4c2C[C@@]3(CCCc2ccccc2)[C@H]1C5
EC50 [19]: 0.87 nM | Ki [3]: 1.95 nM | Ki (Mu-type opioid receptor [4]): 10.2 nM | EC50 (Mu-type opioid receptor [20]): 45.1 nM

Cc1cc(O)cc(C)c1C[C@H](N)C(=O)N1Cc2ccccc2C[C@H]1C(=O)NCC(=O)N1CCc2ccccc2C1
Ki ([16]; cho): 0.75 nM | Ki (Mu-type opioid receptor [11]; cho): 3.3 nM | IC50 ([17]; cho): 2.3 nM | EC50 (Mu-type opioid receptor [12]; cho): 22 nM

C[C@H]1[C@H]2Cc3ccc(O)cc3[C@]1(C)CCN2CCC(=O)Nc1ccccc1
ED50 (Rattus norvegicus): 2.03 mg/kg | Ki [3]: 29 nM | Ki (Mu-type opioid receptor [4]): 0.83 nM

O=C1c2ccc(O)cc2[C@@]23CCCC[C@H]2[C@@H]1N(CC1CCCO1)CC3 (stereo not given in full)
Ki [15]: 0.18 nM | Ki [3]: 1 nM | Ki (Mu-type opioid receptor [4]): 0.38 nM

Cc1cc(O)cc(C)c1C[C@H](N)C(=O)N1Cc2ccccc2C[C@@H]1C(=O)NCc1nc2ccccc2[nH]1
EC50 [21]: 0.0813 nM | Ki [3]: 0.021 nM | Ki (Mu-type opioid receptor [4]): 0.5 nM | EC50 [6]: 0.02 nM

Cc1cc(O)cc(C)c1C[C@H](N)C(=O)N1Cc2ccccc2C[C@H]1CN[C@@H](Cc1ccccc1)C(=O)N[C@@H](Cc1ccccc1)C(N)=O
Ki [3]: 0.44 nM | Ki (Mu-type opioid receptor [4]): 0.94 nM

Oc1ccc2c(c1)[C@@]13CCCC[C@H]1[C@@H](C2)N(CC1CCC1)CC3 [BUTORPHAN]
Ki [15]: 0.073 nM

Nc1nc2cc3c(cc2s1)CC1[C@@H]2CCCC[C@]32CCN1CC1CC1
ED50 (Mus musculus [22]): 1.94 mg/kg | ED50 (Mus musculus [23]): 1.46 mg/kg | EC50 (Mu-type opioid receptor [24]): 73 nM | Ki [25]: 0.049 nM | Ki (Mu-type opioid receptor [26]): 1.5 nM

CN1CC[C@]23c4c5ccc(O)c4O[C@H]2[C@@H](O)C=C[C@H]3[C@H]1C5 [MORPHINE]
ED50 (Rattus norvegicus): 2.7 mg/kg

CCCC[C@@H]1NC(=O)[C@H](Cc2cccc3ccccc23)NC(=O)[C@H](NC(=O)[C@@H](N)Cc2ccc(O)cc2)CSSC[C@@H](C(=O)O)NC1=O
EC50 [8]: 22 nM | EC50 (Mu-type opioid receptor [27]): 5.1 nM

O=C(CCCCCCCCC(=O)Oc1ccc2c(c1)[C@@]13CCCC[C@H]1[C@@H](C2)N(CC1CCC1)CC3)Oc1ccc2c(c1)[C@@]13CCCC[C@H]1[C@@H](C2)N(CC1CCC1)CC3
ED50 (Mus musculus [14]): 3 nmol

Cc1cc(O)cc(C)c1C[C@H](N)C(=O)N1Cc2ccccc2C[C@H]1C(=O)NCC(=O)Nc1ccccc1 (H-[Dmt]-[Tic]-Gly-NHPh)
Ki [3]: 0.16 nM | Ki (Mu-type opioid receptor [4]): 0.042 nM

NC(=O)[C@H]1CSCSC[C@H](NC(=O)[C@@H](N)Cc2ccc(O)cc2)C(=O)N[C@@H](Cc2ccccc2)C(=O)N[C@@H](Cc2ccc3ccccc3c2)C(=O)N1
Ki [15]: 1.3 nM | EC50 [28]: 36 nM | Ki [3]: 0.48 nM | Emax [29]: 89% | Ki (Mu-type opioid receptor [4]): 0.47 nM | Emax (Mu-type opioid receptor [20]): 99%

CCCC[C@@H]1NC(=O)[C@H](Cc2cccc3ccccc23)NC(=O)[C@@H](NC(=O)[C@@H](N)Cc2ccc(O)cc2)CSSC[C@H](C(N)=O)NC1=O
Emax [30]: 100% | Emax [31]: 100%

N[C@@H](Cc1ccc(O)cc1)C(=O)N1Cc2ccccc2CC1CN[C@@H](Cc1ccccc1)C(=O)NC(CC1CCCCC1)C(=O)O (stereo not given in full)
Ke [32]: 0.175 nM | Ki [3]: 0.259 nM | Ki (Mu-type opioid receptor [4]): 1050 nM

CCCC[C@@H]1NC(=O)[C@H](Cc2cccc3ccccc23)NC(=O)[C@@H](NC(=O)[C@@H](N)Cc2ccc(O)cc2)CSSC[C@H](C(=O)O)NC1=O
Emax [30]: 100% | Emax [31]: 100%

NC(=O)[C@@H]1CSSC[C@@H](NC(=O)[C@@H](N)Cc2ccc(O)cc2)C(=O)N[C@@H](Cc2ccccc2)C(=O)N[C@@H](Cc2ccccc2)C(=O)N1 (H-Y[dC]FFC-NH2; disulfide 2-5)
Emax [30]: 69% | Emax [31]: 77%

C=CCN1C[C@H](C)N([C@@H](c2cccc(O)c2)c2cccc(C(=O)N(C)c3cccc(F)c3)c2)C[C@H]1C
Ki [33]: 0.46 nM | IC50 (Mu-type opioid receptor [5]): 1 nM | IC50 [34]: 3.4 nM
